# Data as given in paper PMC10850501 (Nature Communications, 2024).
# Values joined by “and” are separate entries in the source; they are usually repeats but may differ in a detail not shown here. Equal entries are not always repeated. “Also recorded” adds a separate entry of the source. Where two headings read alike, the source gives them in different places. Peptide text beside a SMILES is read from it.
# What was measured:
# [1] = tested on: SARS-CoV-2 Spike pseudotyped viruses, HEK-293T-ACE2 cells; type: cell-based, SARS-CoV-2 (Wuhan-Hu-1 Spike); details: for inhibition of pseudovirus, in words: 10 µM
# [2] = tested on: SARS-CoV-2 live virus (B.1 lineage), Vero E6 cells; type: cell-based
# [3] = Cytocompatibility (CCK8); type: cell-based, human; details: human, A549 cells, read-out: cytocompatibility, normalized to serum free media; for viability at 6 h, 10 µM: 0.01 mM peptide; for viability at 6 h, 100 µM: 0.1 mM peptide; for viability at 6 h, 1000 µM: 1 mM peptide
# Experimental: (§1) Cytocompatibility of the peptides was evaluated at 1, 0.1, and 0.01 mM with A549 cells (ATCC CCL-185) cultured in complete media consisting of 90% F-12K and 10% FBS. The A549 cells were utilized after their first passage and seeded at 10,000 cells/well in a 96-well plate for 24 hours. The conditions were prepared in serum-free A549 media and introduced into the wells for 6 hours, after which the condition media were aspirated, the wells were washed once with PBS, and 10 µL of CCK8 was added to 100 µL of PBS[32]. The plate was incubated for 1 hour and read on a Tecan M200 Infinite plate reader at an absorbance of 450 nm with a reference wavelength of 650 nm. The results were analyzed and normalized to the serum-free media control[28],[32],[76].
# [4] = tested on: A549 cells; test: Cytocompatibility (CCK8); type: cell-based, human; details: human alveolar epithelial A549 cells; 0.01-1 mM
# Experimental: as §1
# [5] = Daily repeat IV dosing, 10 days (chronic PK/safety); type: in vivo, rat (female Wistar)
# Experimental: (§2) Female Wistar rats (225–250 g, 8–12 weeks old) were observed and acclimatized for 2 weeks prior to running the studies. They were housed in a controlled environment with temperature at […] and 40–70% humidity. They were kept in an alternating 12-hour light/dark cycle, and food, and water was provided as pellets ad libitum. Female Wistar Rats were used for the pharmacokinetics and the drug clearance analysis from the blood. The two hydrogels (ESBP2 and ESBP3) at 10 mg/ml concentration were injected into the rats via the lateral tail vein. For subcutaneous implants, the substance was injected between the shoulder blades and above the lumbar vertebrae, 200 μL each, using a 25-gauge needle. The hydrogel bolus was prepared with 0.9% saline and was injected within 1–2 minutes. The volume injected was approximately 1% of the total body weight of the rat, which was calculated prior to the dosing. The initial blood draw was performed for baseline, and the subsequent blood collection was performed from the lateral vein using 25 g butterfly needles.
# Female Wistar rats (225–250 g, 8–12 weeks old) were weighed and repeatedly dosed (1% by weight) IV with ESBP2 or ESBP3 daily at 10 mg/mL (~3 mM). Rat blood samples were collected daily prior to injection via tail vein. Post 10 days of treatment, animals were allowed to recover for 10 days and then sacrificed. Plasma was stored and analyzed as above. The body weight was recorded every day prior to the blood collection.
# [6] = Acute IV pharmacokinetics; type: in vivo, rat (female Wistar)
# Experimental: as §2
# Rat blood samples were collected at 0, 5, 15, 30 minutes, and 1, 2, 4, 8, and 24 hours post-injection timepoints for Acute PK and were aliquoted out into heparinized tubes to prevent coagulation and stored on top of ice packs. Blood collected in K2EDTA anticoagulant tubes was processed to plasma frozen via centrifugation at 13000 RCF for 10 minutes at 4 °C and stored at −80 °C till analysis using HPLC. The body weight was recorded every day prior to the blood collection.
# [7] = replicate 1, CCK8, 6 h exposure, absorbance 450 nm
compound,measurement,setting,value
CC[C@H](C)[C@H](NC(=O)CNC(=O)[C@H](CCC(=O)O)NC(=O)[C@H](CC(C)C)NC(=O)[C@H](CO)NC(=O)[C@H](CC(C)C)NC(=O)[C@H](CO)NC(=O)[C@H](CC(C)C)NC(=O)[C@H](CO)NC(=O)[C@H](CC(C)C)NC(=O)[C@H](CO)NC(=O)[C@H](CC(C)C)NC(=O)[C@H](CO)NC(=O)[C@H](CC(C)C)NC(=O)[C@H](CO)NC(=O)[C@H](CCC(=O)O)NC(C)=O)C(=O)N[C@@H](CCC(=O)O)C(=O)N[C@@H](CCC(=O)O)C(=O)N[C@@H](CCC(N)=O)C(=O)N[C@@H](C)C(=O)N[C@@H](CCCCN)C(=O)N[C@H](C(=O)N[C@@H](Cc1ccccc1)C(=O)N[C@@H](CC(C)C)C(=O)N[C@@H](CC(=O)O)C(=O)N[C@@H](CCCCN)C(=O)N[C@@H](Cc1ccccc1)C(=O)N[C@@H](CC(N)=O)C(=O)N[C@@H](Cc1c[nH]cn1)C(=O)N[C@@H](CCC(=O)O)C(=O)N[C@@H](C)C(=O)N[C@@H](CCC(=O)O)C(=O)N[C@@H](CC(=O)O)C(=O)N[C@@H](CC(C)C)C(=O)N[C@@H](Cc1ccccc1)C(=O)N[C@@H](Cc1ccc(O)cc1)C(=O)N[C@@H](CCC(N)=O)C(=O)N[C@@H](CO)C(N)=O)[C@@H](C)O [ESBP1],"Normalized, Average",[1],0.2588
same,"inhibition of pseudovirus, in words",[1],inhibited pseudovirus to a similar degree
same,"live virus inhibition, in words",[2],significant improvement in viral inhibition
same,Relative PFU,[2]; 10 µM,51.2258 and 58.5437 and 80.4976
CC[C@H](C)[C@H](NC(=O)CNC(=O)[C@H](CCCCN)NC(=O)[C@H](CC(C)C)NC(=O)[C@H](CO)NC(=O)[C@H](CC(C)C)NC(=O)[C@H](CO)NC(=O)[C@H](CC(C)C)NC(=O)[C@H](CO)NC(=O)[C@H](CC(C)C)NC(=O)[C@H](CO)NC(=O)[C@H](CC(C)C)NC(=O)[C@H](CO)NC(=O)[C@H](CC(C)C)NC(=O)[C@H](CO)NC(=O)[C@H](CCCCN)NC(C)=O)C(=O)N[C@@H](CCC(=O)O)C(=O)N[C@@H](CCC(=O)O)C(=O)N[C@@H](CCC(N)=O)C(=O)N[C@@H](C)C(=O)N[C@@H](CCCCN)C(=O)N[C@H](C(=O)N[C@@H](Cc1ccccc1)C(=O)N[C@@H](CC(C)C)C(=O)N[C@@H](CC(=O)O)C(=O)N[C@@H](CCCCN)C(=O)N[C@@H](Cc1ccccc1)C(=O)N[C@@H](CC(N)=O)C(=O)N[C@@H](Cc1c[nH]cn1)C(=O)N[C@@H](CCC(=O)O)C(=O)N[C@@H](C)C(=O)N[C@@H](CCC(=O)O)C(=O)N[C@@H](CC(=O)O)C(=O)N[C@@H](CC(C)C)C(=O)N[C@@H](Cc1ccccc1)C(=O)N[C@@H](Cc1ccc(O)cc1)C(=O)N[C@@H](CCC(N)=O)C(=O)N[C@@H](CO)C(N)=O)[C@@H](C)O [KSBP1],"Normalized, Average",[1],0.8193
same,"inhibition of pseudovirus, in words",[1],significant decrease in inhibitory effect
"CSCC[C@H](NC(=O)[C@H](Cc1ccccc1)NC(=O)[C@H](CCCCN)NC(=O)[C@H](CC(=O)O)NC(=O)[C@H](CC(C)C)NC(=O)[C@H](Cc1ccccc1)NC(=O)[C@@H](NC(=O)[C@H](CCCCN)NC(=O)[C@H](CC(C)C)NC(=O)[C@H](CCC(N)=O)NC(=O)[C@H](CCC(=O)O)NC(=O)[C@H](CCC(=O)O)NC(=O)[C@H](CC(C)C)NC(=O)[C@H](C)NC(=O)[C@H](CO)NC(C)=O)[C@@H](C)O)C(=O)N[C@@H](Cc1c[nH]cn1)C(=O)N[C@@H](CCC(=O)O)C(=O)N[C@@H](CC(C)C)C(=O)N[C@@H](CCC(=O)O)C(=O)N[C@@H](CC(=O)O)C(=O)N[C@@H](CC(C)C)C(=O)N[C@@H](CC(C)C)C(=O)N[C@@H](Cc1ccc(O)cc1)C(=O)N[C@@H](CCC(N)=O)C(=O)N[C@@H](CC(C)C)C(=O)N[C@@H](C)C(=O)N[C@@H](CC(C)C)C(N)=O [SBP2, reference compound] (Ac-SALEEQLKTFLDKFMHELEDLLYQLAL-NH2)","viability at 6 h, 10 µM","[3]; replicate 1, CCK8, 6 h",105%
same,"viability at 6 h, 10 µM","[3]; replicate 2, CCK8, 6 h",92.2%
same,"viability at 6 h, 100 µM","[3]; replicate 1, CCK8, 6 h",107%
same,"viability at 6 h, 100 µM","[3]; replicate 2, CCK8, 6 h",104%
same,"viability at 6 h, 100 µM","[3]; replicate 3, CCK8, 6 h",91.4%
same,"viability at 6 h, 1000 µM",[3]; [7],85.7%
same,"viability at 6 h, 1000 µM","[3]; replicate 2, CCK8, 6 h",122%
same,"viability at 6 h, 1000 µM","[3]; replicate 3, CCK8, 6 h",150%
same,"cytocompatibility, in words",[4],excellent cytocompatibility
same,"in vitro live virus inhibition, in words",[2],inhibition of live virus
CC[C@H](C)[C@H](NC(=O)[C@H](Cc1ccc(O)cc1)NC(=O)[C@@H](NC(=O)[C@H](CCCCN)NC(=O)[C@H](Cc1ccc(O)cc1)NC(=O)[C@H](CCC(N)=O)NC(C)=O)[C@@H](C)O)C(=O)N[C@@H](CC(=O)O)C(=O)N[C@@H](CCCCN)C(=O)N[C@@H](CC(N)=O)C(=O)N[C@@H](CC(N)=O)C(=O)N[C@@H](Cc1c[nH]cn1)C(=O)N[C@@H](Cc1ccc(O)cc1)C(=O)N[C@@H](C)C(=O)N[C@@H](CCC(=O)O)C(=O)N[C@@H](CC(=O)O)C(=O)N[C@@H](CCC(=O)O)C(=O)N[C@@H](CCCNC(=N)N)C(=O)N[C@@H](Cc1ccc(O)cc1)C(=O)N[C@@H](CCCCN)C(N)=O [SBP3] (Ac-QYKTYIDKNNHYAEDERYK-NH2),"viability at 6 h, 10 µM","[3]; replicate 1, CCK8, 6 h",104%
same,"viability at 6 h, 10 µM","[3]; replicate 2, CCK8, 6 h",96.9%
same,"viability at 6 h, 100 µM","[3]; replicate 1, CCK8, 6 h",77.8%
same,"viability at 6 h, 100 µM","[3]; replicate 2, CCK8, 6 h",94.4%
same,"viability at 6 h, 100 µM","[3]; replicate 3, CCK8, 6 h",95.5%
same,"viability at 6 h, 1000 µM",[3]; [7],144%
same,"viability at 6 h, 1000 µM","[3]; replicate 2, CCK8, 6 h",139%
same,"Comparative, Average",[2],72.3704
same,"live virus plaque inhibition, in words",[2],no major differences
Ac-ESLSLSLSLSLSLEGSALEEQLKTFLDKFMHELEDLLYQLAL-NH2 [ESBP2],"viability at 6 h, 10 µM","[3]; replicate 1, CCK8, 6 h",94.5%
same,"viability at 6 h, 10 µM","[3]; replicate 2, CCK8, 6 h",98.3%
same,"viability at 6 h, 100 µM","[3]; replicate 1, CCK8, 6 h",129%
same,"viability at 6 h, 100 µM","[3]; replicate 2, CCK8, 6 h",132%
same,"viability at 6 h, 100 µM","[3]; replicate 3, CCK8, 6 h",196%
same,"viability at 6 h, 1000 µM",[3]; [7],117%
same,"viability at 6 h, 1000 µM","[3]; replicate 2, CCK8, 6 h",104%
same,"viability at 6 h, 1000 µM","[3]; replicate 3, CCK8, 6 h",94.1%
same,"cytocompatibility, in words",[4],excellent cytocompatibility
same,"repeat IV dosing safety, in words","[5]; daily IV for 10 days, ~1 w% (10 mg/mL), 225-250 g adult rats",no adverse effect
same,"significant changes in body weight (ESBP3 also animal behavior, adverse events, gross organ morphology) compared to carrier","[5]; daily repeated IV dosing for 10 days, rats",no
same,"in vitro live virus inhibition, in words",[2],inhibition of live virus; also recorded: significantly improved in vitro live virus inhibition
same,eliminated by,"[6]; ESBP2 IV bolus through the tail vein, Wistar rats (n=8)",≤ 8 h
same,clearance from the circulation (time),"[6]; acute 24-hour single-dose IV bolus PK, rats",4 to 8 h
same,Tmax,"[6]; female, rat, 10 mg/mL, ESBP2 IV bolus through the tail vein, Wistar rats (n=8), plasma, HPLC, read-out: time of concentration peak (converted)",30 min
same,Cmax,"[6]; female, rat, plasma, 10 mg/mL, ESBP2 IV bolus, Wistar rats (n=8), at 30 minutes following injection, read-out: observed maximum concentration",36000 ng/mL
same,AUC,"[6]; female, rat, plasma, 10 mg/mL, ESBP2 IV bolus, Wistar rats (n=8), read-out: area under the curve",47000 ng·h/mL
